In patent US11091451B2, “SHMT inhibitors and uses thereof” (Raze Therapeutics, Inc., priority 2016, dated 2021):

Columns and labels:
[1] = target: Human mitochondrial SHMT2 (Homo sapiens (Human), UniProt P34897); assay: SHMT2 activity inhibition assay (serine production from glycine and CH2-THF, mass spectroscopy); format: biochemical; settings: 60 minutes at room temperature
Excerpt: (§1) Full length human cytosolic Serine Hydroxymethyl transferase 1 (SHMT1, residues 1-483 in Uniport ID P34896) was expressed as an N-terminal His6 tagged protein and purified in E. coli using nickel capture followed by size-exclusion chromatography. Human mitochondrial SHMT2 (residues 30-504 in Uniprot ID P34897) with mitochondrial leader sequence deleted was expressed as an N-terminal His6 tagged protein and purified in E. coli using nickel capture followed by size-exclusion chromatography.
Serine hydroxymethyltransferases catalyze the reversible hydroxymethylation of glycine to serine, with methylene tetrahydrofolate (CH2-THF) providing the additional carbon. SHMT1 and SHMT2 activity was determined by measuring serine production from glycine and CH2-THF using mass spectroscopy. Briefly, 15 ul of 0.5 mM glycine and 0.2 mM CH2-THF in 20 mM TEA, pH8.0, 0.2 mM NADPH were added to 384 well plate containing 0, 0.05 mM, 0.005 mM or 0.0005 mM of inhibitor. […] The plate was incubated for 60 minutes at room temperature and the reaction was quenched by the addition of 30 ul of 10% trichloroacetic acid. Serine produced was analyzed using Rapidfire 360 and API4000^+ in the positive ion mode.

[2] = target: human cytosolic Serine Hydroxymethyl transferase 1 (SHMT1) (Homo sapiens (Human), UniProt P34896); assay: SHMT1 activity inhibition assay (serine production from glycine and CH2-THF, mass spectroscopy); format: biochemical; settings: 60 minutes at room temperature
Chain of human cytosolic Serine Hydroxymethyl transferase 1 (SHMT1) (P34896 whole entry): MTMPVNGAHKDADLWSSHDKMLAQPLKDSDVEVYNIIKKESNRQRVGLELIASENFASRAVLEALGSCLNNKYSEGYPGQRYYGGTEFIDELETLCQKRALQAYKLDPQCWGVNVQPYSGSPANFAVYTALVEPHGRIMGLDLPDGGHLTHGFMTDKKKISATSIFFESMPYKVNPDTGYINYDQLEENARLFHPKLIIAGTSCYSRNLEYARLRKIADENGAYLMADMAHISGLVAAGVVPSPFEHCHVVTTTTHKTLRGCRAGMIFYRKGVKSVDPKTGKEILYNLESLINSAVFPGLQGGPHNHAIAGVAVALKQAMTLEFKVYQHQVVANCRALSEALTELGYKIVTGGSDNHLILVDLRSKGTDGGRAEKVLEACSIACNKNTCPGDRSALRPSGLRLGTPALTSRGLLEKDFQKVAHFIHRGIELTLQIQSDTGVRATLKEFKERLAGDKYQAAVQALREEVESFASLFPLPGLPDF
Excerpt: as §1
Serine hydroxymethyltransferases catalyze the reversible hydroxymethylation of glycine to serine, with methylene tetrahydrofolate (CH2-THF) providing the additional carbon. SHMT1 and SHMT2 activity was determined by measuring serine production from glycine and CH2-THF using mass spectroscopy. Briefly, 15 ul of 0.5 mM glycine and 0.2 mM CH2-THF in 20 mM TEA, pH8.0, 0.2 mM NADPH were added to 384 well plate containing 0, 0.05 mM, 0.005 mM or 0.0005 mM of inhibitor. 15 ul of SHMT1 or 2 were added to initiate the reaction. The plate was incubated for 60 minutes at room temperature and the reaction was quenched by the addition of 30 ul of 10% trichloroacetic acid. Serine produced was analyzed using Rapidfire 360 and API4000^+ in the positive ion mode.

Chain of Human mitochondrial SHMT2 (P34897 30-504): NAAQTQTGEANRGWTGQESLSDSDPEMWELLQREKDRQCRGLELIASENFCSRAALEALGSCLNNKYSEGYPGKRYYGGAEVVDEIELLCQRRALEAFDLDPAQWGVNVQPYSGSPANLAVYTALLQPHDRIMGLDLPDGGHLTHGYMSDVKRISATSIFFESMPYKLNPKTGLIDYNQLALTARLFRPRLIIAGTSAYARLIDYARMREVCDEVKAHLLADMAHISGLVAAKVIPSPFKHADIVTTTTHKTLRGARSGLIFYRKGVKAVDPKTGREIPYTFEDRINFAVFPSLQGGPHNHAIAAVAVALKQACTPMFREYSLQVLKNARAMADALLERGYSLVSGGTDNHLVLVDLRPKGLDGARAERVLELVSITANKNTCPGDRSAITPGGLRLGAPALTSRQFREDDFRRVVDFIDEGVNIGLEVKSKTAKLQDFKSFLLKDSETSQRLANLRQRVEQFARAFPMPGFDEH

Structure (SMILES) | IC50 [1] | IC50 [2]
CC(C)(NC(=O)Cc1csc(-c2ccc(Cl)cc2-c2cccc(C#N)c2)n1)C(=O)O [Compound I-1, 2-[[2-[2-[4-Chloro-2-(3-cyanophenyl)phenyl]thiazol-4-yl]acetyl]amino]-2-methyl-propanoic Acid] | < 1 µM | < 1 µM
CC(C)(NC(=O)Cc1csc(-c2ccc3c(c2-c2ccccc2)OCCO3)n1)C(=O)O [Compound I-2, 2-Methyl-2-[[2-[2-(5-phenyl-2,3-dihydro-1,4-benzodioxin-6-yl)thiazol-4-yl]acetyl]amino] propanoic Acid] | 1 to 10 µM | < 1 µM
Cc1ccc(-c2cc(Cl)ccc2-c2cccc(CC(=O)NC(C)(C)C(=O)O)c2)cc1 [Compound I-3, 2-[[2-[3-[4-Chloro-2-(p-tolyl)phenyl]phenyl]acetyl]amino]-2-methyl-propanoic Acid] | < 1 µM | < 1 µM
Cc1cccc(-c2cc(Cl)ccc2-c2nc(CC(=O)NC(C)(C)C(=O)O)cs2)c1 [Compound I-4] | < 1 µM | < 1 µM
CC(C)(NC(=O)Cc1csc(-c2ccc(Cl)cc2-c2ccccc2)n1)C(=O)O [Compound I-5] | < 1 µM | < 1 µM
CC(C)(NC(=O)Cc1csc(-c2ccc(Cl)cc2-c2cccc(Cl)c2)n1)C(=O)O [Compound I-6] | < 1 µM | < 1 µM
CC(C)(NC(=O)Cc1csc(-c2ccc(Cl)cc2-c2cccc3c2COC3)n1)C(=O)O [Compound I-7] | < 1 µM | < 1 µM
COc1cc(-c2nc(CC(=O)NC(C)(C)C(=O)O)cs2)c(-c2ccccc2)cc1Cl [Compound I-8, 2-[[2-[2-(4-chloro-5-methoxy-2-phenyl-phenyl)thiazol-4-yl]acetyl]amino]-2-methyl-propanoic Acid] | < 1 µM | < 1 µM
Cc1cccc(-c2cc(Cl)ccc2-c2nc(CC(=O)NC(C)(C)C(=O)O)cs2)c1C [Compound I-9] | < 1 µM | < 1 µM
CC(C)(NC(=O)Cc1csc(-c2ccc(Cl)cc2CC2CCC2)n1)C(=O)O [Compound I-10, 2-[[2-[2-[4-Chloro-2-(cyclobutylmethyl)phenyl]thiazol-4-yl]acetyl]amino]-2-methyl-propanoic Acid] | < 1 µM | < 1 µM
CC(=O)N1CCC(c2cc(Cl)ccc2-c2nc(CC(=O)NC(C)(C)C(=O)O)cs2)CC1 [Compound I-11, 2-[[2-[2-[2-(1-Acetyl-4-piperidyl)-4-chloro-phenyl]thiazol-4-yl]acetyl]amino]-2-methyl-propanoic Acid] | < 1 µM | 1 to 10 µM
CCc1cccc(-c2cc(Cl)ccc2-c2nc(CC(=O)NC(C)(C)C(=O)O)cs2)c1 [Compound I-12] | < 1 µM | 1 to 10 µM
COc1ccc(-c2nc(CC(=O)NC(C)(C)C(=O)O)cs2)c(-c2ccccc2)c1 [Compound I-13, 2-[[2-[2-(4-Methoxy-2-phenyl-phenyl)thiazol-4-yl]acetyl]amino]-2-methyl-propanoic Acid] |  | 1 to 10 µM
CC(C)(NC(=O)Cc1csc(-c2ccc(Cl)cc2-c2cccc3c2CCC3)n1)C(=O)O [Compound I-14] | < 1 µM | 1 to 10 µM
CC(C)(NC(=O)Cc1cccc(-c2ccc(Cl)cc2-c2ccc(F)cc2)c1)C(=O)O [Compound I-15, 2-[[2-[3-[4-Chloro-2-(4-fluorophenyl)phenyl]phenyl]acetyl]amino]-2-methyl-propanoic Acid] | < 1 µM | 1 to 10 µM
CC(C)(NC(=O)Cc1csc(-c2ccc(Cl)cc2C2CCOCC2)n1)C(=O)O [Compound I-16, 2-[[2-[2-(4-Chloro-2-tetrahydropyran-4-yl-phenyl)thiazol-4-yl]acetyl]amino]-2-methyl-propanoic Acid] | < 1 µM | 1 to 10 µM
CC(C)(NC(=O)Cc1cncc(-c2ccc(Cl)cc2-c2ccccc2)c1)C(=O)O [Compound I-17, 2-[[2-[5-(4-Chloro-2-phenyl-phenyl)-3-pyridyl]acetyl]amino]-2-methyl-propanoic Acid] | < 1 µM | 1 to 10 µM
CC(C)(NC(=O)Cc1cccc(-c2ccc(Cl)cc2-c2ccccc2)n1)C(=O)O [Compound I-18] | < 1 µM | 1 to 10 µM
CC(C)(NC(=O)Cc1cccc(-c2ccc(Cl)cc2-c2cccc(C(N)=O)c2)c1)C(=O)O [Compound I-19, 2-[[2-[3-[2-(3-Carbamoylphenyl)-4-chloro-phenyl]phenyl]acetyl]amino]-2-methyl-propanoic Acid] | < 1 µM | 1 to 10 µM
CC(C)(NC(=O)Cc1ccnc(-c2ccc(Cl)cc2-c2ccccc2)c1)C(=O)O [Compound I-20] |  | 1 to 10 µM
CC(C)Cc1cc(Cl)ccc1-c1nc(CC(=O)NC(C)(C)C(=O)O)cs1 [Compound I-21] | < 1 µM | 1 to 10 µM
CC(C)(NC(=O)Cc1cc(-c2ccc(Cl)cc2-c2ccccc2)ccn1)C(=O)O [Compound I-23] | 1 to 10 µM | 1 to 10 µM
CC(C)(NC(=O)Cc1csc(-c2ccc(Cl)cc2Cl)n1)C(=O)O [Compound I-24] | < 1 µM | 1 to 10 µM

Structure (SMILES) | IC50 [1] | IC50 [2]
CC(C)c1cc(Cl)ccc1-c1nc(CC(=O)NC(C)(C)C(=O)O)cs1 [Compound I-25] | < 1 µM | 1 to 10 µM
CC(C)(NC(=O)Cc1csc(-c2ccc(Cl)cc2C2CC2)n1)C(=O)O [Compound I-26] | 1 to 10 µM | 10 to 100 µM
CCc1cc(Cl)ccc1-c1nc(CC(=O)NC(C)(C)C(=O)O)cs1 [Compound I-27] | 1 to 10 µM | 10 to 100 µM
O=C(Cc1csc(-c2ccc(Cl)cc2Cl)n1)NC1(C(=O)O)CCC1 [Compound I-28] | 1 to 10 µM | 10 to 100 µM
CC(C)(NC(=O)Cc1ccnc(-c2ccc(Cl)cc2-c2ccccc2)n1)C(=O)O [Compound I-29] | 1 to 10 µM | 10 to 100 µM
CC(C)(NC(=O)Cc1cccc(-c2ccc(Cl)cc2)c1)C(=O)O [Compound I-30, 2-[2-[3-(4-chlorophenyl)phenyl]acetamido]-2-methylpropanoic Acid] | 1 to 10 µM | 10 to 100 µM
CC(C)(NC(=O)Cc1csc(-c2ccc(Cl)cc2C2CCNCC2)n1)C(=O)O [Compound I-31, 2-[[2-[2-[4-Chloro-2-(4-piperidyl)phenyl]thiazol-4-yl]acetyl]amino]-2-methyl-propanoic Acid] | 1 to 10 µM | 10 to 100 µM
CC[C@@H](C)[C@H](NC(=O)Cc1csc(-c2cccc(Cl)c2)n1)C(=O)O [Compound I-32] | 10 to 100 µM | 10 to 100 µM
Cc1sc(-c2ccc(Cl)cc2Cl)nc1CC(=O)NC(C)(C)C(=O)O [Compound I-33] | 1 to 10 µM | 10 to 100 µM
O=C(O)CNC(=O)Cc1csc(-c2ccc(Cl)cc2-c2ccccc2)n1 [Compound I-34, 2-[2-[2-(4-chloro-2-phenylphenyl)-1,3-thiazol-4-yl]acetamido]acetic Acid] | 10 to 100 µM | 10 to 100 µM
C[C@H](NC(=O)Cc1csc(-c2ccc(Cl)cc2Cl)n1)C(=O)O [Compound I-35] | 10 to 100 µM | 10 to 100 µM
O=C(O)CNC(=O)Cc1csc(-c2ccc(Cl)c(-c3ccccc3)c2)n1 [Compound I-36] | 10 to 100 µM | 10 to 100 µM
O=C(Cc1csc(-c2ccc3c(c2)OCCO3)n1)NC1(C(=O)O)CCC1 [Compound I-37] | 1 to 10 µM | 10 to 100 µM
CC(C(=O)NCC(=O)O)c1csc(-c2ccc(Cl)cc2Cl)n1 (stereo not drawn) [Compound I-38] | 10 to 100 µM | 10 to 100 µM
C[C@H](NC(=O)Cc1csc(-c2cccc(Br)c2)n1)C(=O)O [Compound I-39] | 10 to 100 µM | 10 to 100 µM
O=C(O)CNC(=O)Cc1csc(-c2ccc(Cl)c3ccccc23)n1 [Compound I-40, 2-[2-[2-(4-chloronaphthalen-1-yl)-1,3-thiazol-4-yl]acetamido]acetic Acid] | 10 to 100 µM | 10 to 100 µM
O=C(O)CNC(=O)Cc1cccc(-c2ccc(Cl)cc2Cl)c1 [Compound I-41] | 10 to 100 µM | 10 to 100 µM
O=C(Cc1csc(-c2ccc(Cl)cc2Cl)n1)N[C@@H](Cc1ccccc1)C(=O)O [Compound I-42] | 100 to 500 µM | 10 to 100 µM
CC(NC(=O)Cc1csc(-c2cccc(Br)c2)n1)C(=O)O (stereo not drawn) [Compound I-43] | 10 to 100 µM | 10 to 100 µM
NC(=O)NCCC[C@@H](NC(=O)Cc1csc(-c2ccc(F)cc2)n1)C(=O)O [Compound I-44] | 100 to 500 µM | 10 to 100 µM
O=C(Cc1csc(-c2ccc(Cl)cc2Cl)n1)NC1(C(=O)O)CC1 [Compound I-45] | 10 to 100 µM | 10 to 100 µM
O=C(O)CNC(=O)Cc1csc(-c2ccc(Cl)cc2Cl)n1 [Compound I-46] | 10 to 100 µM | 10 to 100 µM
CC(C)C[C@H](NC(=O)Cc1csc(-c2ccc(Cl)cc2Cl)n1)C(=O)O [Compound I-47] | 100 to 500 µM | 100 to 500 µM
